Measured values published in the NIST ThermoML archive (doi:10.1016/j.jct.2016.09.027).
Numbers after ± are expanded uncertainties.

Test: mn = molality of the nth substance listed, in mol/kg
Settings: 100 kPa, Liquid; for speed of sound: Frequency=3 MHz, Sing-around technique in a fixed-path interferometer; for mass density: Vibrating tube method

## C[C@H]1COc2c(N3CCN(C)CC3)c(F)cc3c(=O)c(C(=O)O)cn1c23 [levofloxacin] + O
288.15 K, m1 = 0.005
  speed of sound: 1467.4 ± 1.6 m/s
  mass density: 1001.5 ± 2 kg/m3
288.15 K, m1 = 0.01
  speed of sound: 1468.3 ± 1.6 m/s
  mass density: 1002.04 ± 2 kg/m3
288.15 K, m1 = 0.03
  speed of sound: 1471.4 ± 1.6 m/s
  mass density: 1004.52 ± 2 kg/m3
293.15 K, m1 = 0.005
  speed of sound: 1483.2 ± 1.6 m/s
  mass density: 1000.61 ± 2 kg/m3
293.15 K, m1 = 0.01
  speed of sound: 1484 ± 1.6 m/s
  mass density: 1001.14 ± 2 kg/m3
293.15 K, m1 = 0.03
  speed of sound: 1487.2 ± 1.6 m/s
  mass density: 1003.59 ± 2 kg/m3
298.15 K, m1 = 0.005
  speed of sound: 1497.3 ± 1.6 m/s
  mass density: 999.444 ± 2 kg/m3
298.15 K, m1 = 0.01
  speed of sound: 1498.1 ± 1.6 m/s
  mass density: 999.956 ± 2 kg/m3
298.15 K, m1 = 0.03
  speed of sound: 1500.9 ± 1.6 m/s
  mass density: 1002.39 ± 2 kg/m3
303.15 K, m1 = 0.005
  speed of sound: 1509.7 ± 1.6 m/s
  mass density: 998.037 ± 2 kg/m3
303.15 K, m1 = 0.01
  speed of sound: 1510.4 ± 1.6 m/s
  mass density: 998.556 ± 2 kg/m3
303.15 K, m1 = 0.03
  speed of sound: 1513 ± 1.6 m/s
  mass density: 1000.96 ± 2 kg/m3
308.15 K, m1 = 0.005
  speed of sound: 1520.3 ± 1.6 m/s
  mass density: 996.415 ± 2 kg/m3
308.15 K, m1 = 0.01
  speed of sound: 1521 ± 1.6 m/s
  mass density: 996.926 ± 2 kg/m3
308.15 K, m1 = 0.03
  speed of sound: 1523.4 ± 1.6 m/s
  mass density: 999.305 ± 2 kg/m3
